# Laboratory results reported in ChEMBL document CHEMBL1132568, “Synthesis, pharmacological evaluation, and structure-activity relationship and quantitative structure-activity relationship studies on novel derivatives of 2,4-diamino-6,7-dimethoxyquinazoline alpha1-adrenoceptor antagonists” (J Med Chem, 1999).
# pIC50, pKi: −log10 of the molar value.
# Target: T1, 5-hydroxytryptamine receptor 1A (Rattus norvegicus, UniProt P19327)
# T1 sequence (P19327 whole entry): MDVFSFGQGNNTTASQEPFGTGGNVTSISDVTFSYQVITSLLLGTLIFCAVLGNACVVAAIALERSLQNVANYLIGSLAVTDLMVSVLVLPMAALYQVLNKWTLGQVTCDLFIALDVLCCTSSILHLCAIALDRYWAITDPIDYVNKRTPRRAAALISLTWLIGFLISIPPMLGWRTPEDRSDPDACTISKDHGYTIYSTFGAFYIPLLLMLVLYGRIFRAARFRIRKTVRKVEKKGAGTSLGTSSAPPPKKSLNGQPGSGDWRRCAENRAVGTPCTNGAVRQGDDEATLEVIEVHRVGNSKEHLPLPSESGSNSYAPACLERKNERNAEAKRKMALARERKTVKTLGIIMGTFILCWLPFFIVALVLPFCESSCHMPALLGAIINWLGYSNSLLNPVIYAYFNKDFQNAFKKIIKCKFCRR
# Assay: Inhibitory concentration against 5-hydroxytryptamine 1A receptor (Inactive at >1000 nM concentration)
row,SMILES,pIC50
1,COc1cc2nc(N3CCN(C(=O)COc4c(OC)cccc4C(C)C)CC3)nc(N)c2cc1OC,< 6.00
2,COc1cc2nc(N3CCN(C(=O)CC(=O)c4ccccc4)CC3)nc(N)c2cc1OC,< 6.00
3,COc1cc2nc(N3CCN(C(=O)C(C)Oc4c(OC)cccc4C(C)C)CC3)nc(N)c2cc1OC (configuration not stated),< 6.00

# Target: 5-hydroxytryptamine receptor 2A (Rattus norvegicus, UniProt P14842)
# Sequence (P14842 whole entry): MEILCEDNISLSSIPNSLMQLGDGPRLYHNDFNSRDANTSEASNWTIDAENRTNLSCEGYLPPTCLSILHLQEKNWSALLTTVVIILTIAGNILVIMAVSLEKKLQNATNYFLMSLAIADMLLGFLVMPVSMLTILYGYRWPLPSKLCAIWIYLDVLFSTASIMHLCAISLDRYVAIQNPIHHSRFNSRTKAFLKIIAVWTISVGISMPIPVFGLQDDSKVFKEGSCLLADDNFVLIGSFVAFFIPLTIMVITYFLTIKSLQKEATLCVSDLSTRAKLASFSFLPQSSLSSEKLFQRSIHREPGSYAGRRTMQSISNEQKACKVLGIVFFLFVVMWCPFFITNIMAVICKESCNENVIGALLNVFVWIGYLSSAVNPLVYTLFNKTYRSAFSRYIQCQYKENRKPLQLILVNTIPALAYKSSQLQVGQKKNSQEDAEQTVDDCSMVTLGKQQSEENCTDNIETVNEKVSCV
# Assay: Inhibitory concentration against 5-hydroxytryptamine 2A receptor (Inactive at >1000 nM concentration)
row,SMILES,pIC50
1,COc1cc2nc(N3CCN(C(=O)COc4c(OC)cccc4C(C)C)CC3)nc(N)c2cc1OC,< 6.00
2,COc1cc2nc(N3CCN(C(=O)CC(=O)c4ccccc4)CC3)nc(N)c2cc1OC,< 6.00
3,COc1cc2nc(N3CCN(C(=O)C(C)Oc4c(OC)cccc4C(C)C)CC3)nc(N)c2cc1OC (configuration not stated),< 6.00

# Target: T2, Adrenergic receptor alpha-1 (Rattus norvegicus, UniProt P15823+P23944+P43140)
# T2 sequence (P15823 whole entry): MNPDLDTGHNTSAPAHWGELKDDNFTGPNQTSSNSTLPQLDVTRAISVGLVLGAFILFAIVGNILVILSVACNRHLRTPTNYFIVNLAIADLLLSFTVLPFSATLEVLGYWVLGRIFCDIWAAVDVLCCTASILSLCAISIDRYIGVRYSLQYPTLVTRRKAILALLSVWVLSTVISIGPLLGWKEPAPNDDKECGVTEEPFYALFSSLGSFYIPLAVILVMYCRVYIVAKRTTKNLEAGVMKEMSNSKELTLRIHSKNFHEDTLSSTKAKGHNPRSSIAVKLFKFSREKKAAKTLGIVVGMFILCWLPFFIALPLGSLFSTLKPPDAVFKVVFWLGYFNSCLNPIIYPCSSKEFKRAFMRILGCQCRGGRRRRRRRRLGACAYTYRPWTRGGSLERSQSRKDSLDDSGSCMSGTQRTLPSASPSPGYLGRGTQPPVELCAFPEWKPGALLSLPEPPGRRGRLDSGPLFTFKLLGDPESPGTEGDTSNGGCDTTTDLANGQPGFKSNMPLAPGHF
# T2 sequence (P23944 whole entry): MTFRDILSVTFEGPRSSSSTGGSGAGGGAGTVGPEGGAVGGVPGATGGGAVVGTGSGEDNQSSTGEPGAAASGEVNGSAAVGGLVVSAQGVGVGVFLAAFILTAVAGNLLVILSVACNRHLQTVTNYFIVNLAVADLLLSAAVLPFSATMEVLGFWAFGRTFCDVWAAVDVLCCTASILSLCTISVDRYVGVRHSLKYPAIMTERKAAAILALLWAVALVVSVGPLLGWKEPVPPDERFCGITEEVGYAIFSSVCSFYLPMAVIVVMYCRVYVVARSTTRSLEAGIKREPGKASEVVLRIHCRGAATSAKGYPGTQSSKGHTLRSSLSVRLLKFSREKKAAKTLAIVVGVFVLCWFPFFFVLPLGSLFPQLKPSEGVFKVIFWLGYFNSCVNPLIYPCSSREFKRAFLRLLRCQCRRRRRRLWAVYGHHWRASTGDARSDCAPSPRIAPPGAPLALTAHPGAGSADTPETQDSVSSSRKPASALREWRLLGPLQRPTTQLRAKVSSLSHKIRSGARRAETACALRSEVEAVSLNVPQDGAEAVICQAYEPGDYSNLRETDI
# T2 sequence (P43140 whole entry): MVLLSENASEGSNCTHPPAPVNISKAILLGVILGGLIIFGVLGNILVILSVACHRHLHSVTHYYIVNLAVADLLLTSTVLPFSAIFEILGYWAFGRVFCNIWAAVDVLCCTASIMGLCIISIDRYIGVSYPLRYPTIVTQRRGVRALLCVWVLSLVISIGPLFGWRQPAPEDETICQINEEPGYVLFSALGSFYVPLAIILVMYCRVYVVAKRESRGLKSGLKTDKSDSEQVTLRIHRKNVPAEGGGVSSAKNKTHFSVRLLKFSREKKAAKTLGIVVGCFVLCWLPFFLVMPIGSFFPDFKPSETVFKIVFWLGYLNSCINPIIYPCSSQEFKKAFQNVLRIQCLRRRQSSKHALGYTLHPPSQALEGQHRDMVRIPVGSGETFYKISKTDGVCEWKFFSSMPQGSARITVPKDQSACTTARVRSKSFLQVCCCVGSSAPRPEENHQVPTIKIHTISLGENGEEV
# Assay: Inhibition of Alpha-1 adrenergic receptor in rat cortex membrane
# Format: cell membranes
row,SMILES,IC50 [nM]
1,COc1cc2nc(N3CCN(C(=O)COc4c(OC)cccc4C(C)C)CC3)nc(N)c2cc1OC,4
2,COc1cc2nc(N3CCN(C(=O)CC(=O)c4ccccc4)CC3)nc(N)c2cc1OC,7.2
3,COc1cc2nc(N3CCN(C(=O)C(C)Oc4c(OC)cccc4C(C)C)CC3)nc(N)c2cc1OC (configuration not stated),123

# Target: T3, Adrenergic receptor alpha-2 (Rattus norvegicus, UniProt P22086+P19328+P22909)
# T3 sequence (P22086 whole entry): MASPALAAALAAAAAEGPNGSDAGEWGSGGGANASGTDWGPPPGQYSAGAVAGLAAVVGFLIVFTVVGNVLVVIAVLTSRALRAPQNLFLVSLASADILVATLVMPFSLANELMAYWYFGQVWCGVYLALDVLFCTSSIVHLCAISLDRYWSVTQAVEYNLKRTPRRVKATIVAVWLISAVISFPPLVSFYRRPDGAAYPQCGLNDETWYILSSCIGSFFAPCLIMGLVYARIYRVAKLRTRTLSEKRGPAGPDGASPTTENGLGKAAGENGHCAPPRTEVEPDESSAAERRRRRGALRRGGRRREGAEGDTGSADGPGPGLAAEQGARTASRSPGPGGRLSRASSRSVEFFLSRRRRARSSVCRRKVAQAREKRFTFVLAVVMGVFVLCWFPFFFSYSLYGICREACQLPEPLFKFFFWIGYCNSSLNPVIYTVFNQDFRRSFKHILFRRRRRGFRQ
# T3 sequence (P19328 whole entry): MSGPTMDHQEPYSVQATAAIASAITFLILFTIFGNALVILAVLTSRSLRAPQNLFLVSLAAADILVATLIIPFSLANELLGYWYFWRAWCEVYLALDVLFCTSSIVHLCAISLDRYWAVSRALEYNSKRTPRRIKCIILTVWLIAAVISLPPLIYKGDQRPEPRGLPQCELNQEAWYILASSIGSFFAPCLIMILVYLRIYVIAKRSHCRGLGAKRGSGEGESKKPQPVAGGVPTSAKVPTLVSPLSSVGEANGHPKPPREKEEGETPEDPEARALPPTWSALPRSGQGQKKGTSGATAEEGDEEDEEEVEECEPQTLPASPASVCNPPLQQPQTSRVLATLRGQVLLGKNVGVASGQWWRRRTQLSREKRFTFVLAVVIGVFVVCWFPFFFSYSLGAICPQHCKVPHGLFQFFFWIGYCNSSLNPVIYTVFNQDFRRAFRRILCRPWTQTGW
# T3 sequence (P22909 whole entry): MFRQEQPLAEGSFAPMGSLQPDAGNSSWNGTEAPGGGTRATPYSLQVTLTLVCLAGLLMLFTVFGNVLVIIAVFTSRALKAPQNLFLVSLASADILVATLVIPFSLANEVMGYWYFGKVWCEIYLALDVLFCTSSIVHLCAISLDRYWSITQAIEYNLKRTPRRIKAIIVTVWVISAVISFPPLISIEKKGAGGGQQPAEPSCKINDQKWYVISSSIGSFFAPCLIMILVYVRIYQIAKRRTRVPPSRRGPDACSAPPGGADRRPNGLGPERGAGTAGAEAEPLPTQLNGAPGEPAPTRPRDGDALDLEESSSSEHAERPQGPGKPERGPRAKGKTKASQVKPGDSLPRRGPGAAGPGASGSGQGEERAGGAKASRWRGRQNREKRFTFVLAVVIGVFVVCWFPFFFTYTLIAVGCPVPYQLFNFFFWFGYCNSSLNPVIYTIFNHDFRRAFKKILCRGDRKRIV
# Assay: Inhibitory concentration against Alpha-2 adrenergic receptor
# Format: protein assay
row,SMILES,IC50 [nM]
1,COc1cc2nc(N3CCN(C(=O)COc4c(OC)cccc4C(C)C)CC3)nc(N)c2cc1OC,> 1000
2,COc1cc2nc(N3CCN(C(=O)CC(=O)c4ccccc4)CC3)nc(N)c2cc1OC,> 1000
3,COc1cc2nc(N3CCN(C(=O)C(C)Oc4c(OC)cccc4C(C)C)CC3)nc(N)c2cc1OC (configuration not stated),> 1000

# Target: T4, Alpha-1A adrenergic receptor (Rattus norvegicus, UniProt P43140)
# T4 sequence (P43140 whole entry): T2 sequence (P43140 whole entry)
# Assay: The binding affinity towards Alpha-1A adrenergic receptor in the COS cell line.
# Format: cell-based
row,SMILES,pKi
1,COc1cc2nc(N3CCN(C(=O)COc4c(OC)cccc4C(C)C)CC3)nc(N)c2cc1OC,8.12
2,COc1cc2nc(N3CCN(C(=O)CC(=O)c4ccccc4)CC3)nc(N)c2cc1OC,7.96
3,COc1cc2nc(N3CCN(C(=O)C(C)Oc4c(OC)cccc4C(C)C)CC3)nc(N)c2cc1OC (configuration not stated),6.81

# Tested on: Canis familiaris
# Assay: In vivo hypotensive effect(DBP) in dog after intravenous administration.
# Format: functional, Canis lupus familiaris
row,SMILES,ED25 [mg/kg]
1,COc1cc2nc(N3CCN(C(=O)COc4c(OC)cccc4C(C)C)CC3)nc(N)c2cc1OC,0.183
2,COc1cc2nc(N3CCN(C(=O)CC(=O)c4ccccc4)CC3)nc(N)c2cc1OC,0.0081

# Tested on: Canis familiaris
# Assay: Ratio of the in vivo effects(DBP/UP) in the dog model after intravenous administration.
# Format: functional, Canis lupus familiaris
row,SMILES,DBP/UP ratio
1,COc1cc2nc(N3CCN(C(=O)CC(=O)c4ccccc4)CC3)nc(N)c2cc1OC,0.7

# Tested on: Canis familiaris
# Assay: In vivo effect on urethral contractility (UP) of dog after intravenous administration.
# Format: functional, Canis lupus familiaris, Urethra
row,SMILES,ED50 [mg/kg]
1,COc1cc2nc(N3CCN(C(=O)COc4c(OC)cccc4C(C)C)CC3)nc(N)c2cc1OC,0.065
2,COc1cc2nc(N3CCN(C(=O)CC(=O)c4ccccc4)CC3)nc(N)c2cc1OC,0.0106

# Target: D(2) dopamine receptor (Rattus norvegicus, UniProt P61169)
# Sequence (P61169 whole entry): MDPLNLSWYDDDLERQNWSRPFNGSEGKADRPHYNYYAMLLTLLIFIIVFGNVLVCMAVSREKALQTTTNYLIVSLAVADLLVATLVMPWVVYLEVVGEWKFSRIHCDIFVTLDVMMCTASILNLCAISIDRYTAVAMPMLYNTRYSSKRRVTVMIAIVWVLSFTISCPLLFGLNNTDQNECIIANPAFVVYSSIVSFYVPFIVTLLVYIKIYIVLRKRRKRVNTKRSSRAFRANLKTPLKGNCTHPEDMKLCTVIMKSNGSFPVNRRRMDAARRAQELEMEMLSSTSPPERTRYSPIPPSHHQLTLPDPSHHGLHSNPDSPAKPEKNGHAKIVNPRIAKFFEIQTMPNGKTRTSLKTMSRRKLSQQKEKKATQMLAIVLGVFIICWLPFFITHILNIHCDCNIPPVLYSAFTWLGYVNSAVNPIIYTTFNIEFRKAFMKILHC
# Assay: Inhibitory concentration against Dopamine receptor D2 (Inactive at >1000 nM concentration)
row,SMILES,pIC50
1,COc1cc2nc(N3CCN(C(=O)COc4c(OC)cccc4C(C)C)CC3)nc(N)c2cc1OC,< 6.00
2,COc1cc2nc(N3CCN(C(=O)CC(=O)c4ccccc4)CC3)nc(N)c2cc1OC,< 6.00
3,COc1cc2nc(N3CCN(C(=O)C(C)Oc4c(OC)cccc4C(C)C)CC3)nc(N)c2cc1OC (configuration not stated),< 6.00

# Target: Alpha-1D adrenergic receptor (Rattus norvegicus)
# Assay: The binding affinity towards Alpha-1D adrenergic receptor in the COS cell line.
row,SMILES,pKi
1,COc1cc2nc(N3CCN(C(=O)CC(=O)c4ccccc4)CC3)nc(N)c2cc1OC,8.09
2,COc1cc2nc(N3CCN(C(=O)C(C)Oc4c(OC)cccc4C(C)C)CC3)nc(N)c2cc1OC (configuration not stated),6.95

# Target: Alpha-1B adrenergic receptor (non-human animal clone)
# Assay: The binding affinity towards Alpha-1B adrenergic receptor in the COS cell line.
row,SMILES,pKi
1,COc1cc2nc(N3CCN(C(=O)CC(=O)c4ccccc4)CC3)nc(N)c2cc1OC,8.27
2,COc1cc2nc(N3CCN(C(=O)C(C)Oc4c(OC)cccc4C(C)C)CC3)nc(N)c2cc1OC (configuration not stated),7.83
